Assay [1] deals with polymorphonuclear neutrophils. The settings on record: cited from earlier work.
Assay [2] concerns granular masses and polymorphonuclear neutrophils. The settings on record: cited from earlier work.
Assay [3] deals with peripheral inflammatory cells of oral fluid-cell harvests. Format: cell-based, human.
For assay [4], the system named is human oral fluid-cell harvests. The assay can be described thus: cells. The format is cell-based.
Assay [5] deals with T1, myeloperoxidase (Homo sapiens, UniProt P05164).
T1 construct: Homogenates were centrifuged at 1,300×g for ten (10) minutes and the supernatant extracts were kept during the course of analysis; from tissue; host or cells: human sputum / oral fluid-cell harvest (neutrophil-rich) homogenate supernatants
T1 sequence (P05164 49-745): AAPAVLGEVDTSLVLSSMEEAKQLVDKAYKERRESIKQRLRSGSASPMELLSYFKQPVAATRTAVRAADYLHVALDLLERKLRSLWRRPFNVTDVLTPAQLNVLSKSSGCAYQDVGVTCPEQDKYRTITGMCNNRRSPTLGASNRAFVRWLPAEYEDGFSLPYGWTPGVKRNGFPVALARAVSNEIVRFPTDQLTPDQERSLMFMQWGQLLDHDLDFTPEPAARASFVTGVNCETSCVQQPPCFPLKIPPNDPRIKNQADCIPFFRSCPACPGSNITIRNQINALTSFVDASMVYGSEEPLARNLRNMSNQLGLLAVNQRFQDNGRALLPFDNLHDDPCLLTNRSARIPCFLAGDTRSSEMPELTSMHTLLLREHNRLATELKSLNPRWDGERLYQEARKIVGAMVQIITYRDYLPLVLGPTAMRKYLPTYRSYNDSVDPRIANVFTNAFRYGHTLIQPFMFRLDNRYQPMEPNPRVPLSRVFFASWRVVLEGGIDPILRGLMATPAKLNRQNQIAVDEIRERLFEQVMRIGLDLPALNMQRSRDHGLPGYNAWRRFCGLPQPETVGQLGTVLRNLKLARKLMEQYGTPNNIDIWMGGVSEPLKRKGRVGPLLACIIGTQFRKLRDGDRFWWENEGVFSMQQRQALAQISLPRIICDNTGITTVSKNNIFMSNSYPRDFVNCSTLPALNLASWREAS
The assay can be described thus: NADH2-NDGA-myeloperoxidase spectrophotometric assay of sputum / oral fluid-cell harvest supernatant extracts. Particulars: for IC50: read-out: concentration that produces fifty (50) percent inhibition of myeloperoxidase. Format: biochemical. As for the experimental part: Aliquots of fresh human oral fluid-cell harvests as exemplified above or fresh human sputum collected by the donors over a twenty-four (24) hour period were disrupted employing either Ten Broeck glass homogenizers or the Virtis homogenizer. Homogenates were centrifuged at 1,300×g for ten (10) minutes and the supernatant extracts were kept during the course of analysis at zero degrees centigrade (0° C.). Other reactants were incubated at thirty-five degrees centigrade (35° C.). Reduced nicotinamide-adenine dinucleotide oxidase and norhydroguaiaretic acid-myeloperoxidase activities were followed at 340 mμ or (nm) employing the Beckman Model DU Spectrophotometer temperature regulated at thirty-five degrees centigrade (35° C.). All specific reactions were run as duplicate assays.
Although this oxidation was very small under the conditions of experiment, an interaction correction factor was determined and applied to all reduced nicotinamide-adenine dinucleotide-nordihydroguaiaretic acid-mycloperoxidase assay reactions.
The velocity constants for the myeloperoxidase reactions behaved and were computed in accord with zero order reaction kinetics. […] In most instances, the activities followed first order reaction kinetics for a short interval and then ceased abruptly. The latter may be due to the presence or accumulation of variable concentrations of an unidentified inhibitor or inhibitors in the supernatants. Since in all cases the oxidase activities were very slow relative to the myeloperoxidase activities, the difference in optical density over the course of the reactions (up to ten (10) minutes) for the oxidase system were computed in the same manner as the data for the rapid myeloperoxidase system. Thus, all velocity constants were expressed in μ Moles of reduced nicotinamide-adenine dinucleotide oxidized per minute per ml. of oral fluid-cell harvest or sputum. The small oxidase activities were applied as a correction factor in the computation of all myeloperoxidase velocity constants.
The pH optimum of the myeloperoxidase system was determined. When fresh nordihydroguaiaretic acid solutions were prepared and interaction rates with reduced nicotinamide-adenine dinucleotide were subtracted as controls from oral lavage and sputum supernatant myeloperoxidase activities, the net velocity constants were zero (0). On the other hand, five (5) hour old nordihydroguaiaretic acid solutions yielded optimal activities at approximately pH 7.4. Subsequent experiments uniformly were carried out at pH 7.0 using five (5) hour old solutions to minimize the rates of the auto oxidation of nordihydroguaiaretic acid and oxidation of reduced nicotinamide-adenine dinucleotide by nordihydroguaiaretic acid when employing alkaline pH's.

Assay [6] has as its system myeloperoxidase (verdoperoxidase). The settings on record: cited from earlier work.
The mark [7] stands for this setting: Homo sapiens, read-out: inhibition of aerobic (d) glucose dependent metabolism.
Where [8] appears, read: Homo sapiens, read-out: inhibition of aerobic endogenous metabolism.
The mark [9] stands for this setting: Homo sapiens, read-out: inhibition of anaerobic glucose metabolism.
Setting [10] is: Homo sapiens, read-out: inhibition of anaerobic glucolysis.
The mark [11] stands for this setting: with added 0.024 Molar hydrogen peroxide.

Where two headings read alike, the source gives them in different places.

Broadly, the inhibition is the percentage by which the read-out fell short of the control.

Turning to `OO` [Hydrogen peroxide, hydrogen peroxide], in assay [1] (0.15 Molar hydrogen peroxide), the “inhibition of hydrogen peroxide-dependent nitro-blue tetrazolium reducing enzyme activity” value was “totally”. Besides, in assay [2] (0.15 Molar hydrogen peroxide), the “inhibition of endogenous nitro-blue tetrazolium reducing enzyme activity in granular masses” value is given as 100%.
Consider `C=CC=O` [Acrolein, acrolein], for which the “peripheral inflammatory cell function” value in assay [3] is “impaired to virtual total loss of function”. In assay [4] (setting [7]), the inhibition at 1 µM was 49% and the inhibition at 2.5 µM worked out at 81%. In addition, in assay [4] (setting [8]), the inhibition at 1 µM was determined as 48% and the inhibition at 2.5 µM was 66%. Also, in assay [4] (setting [9]), the inhibition at 10 µM came to 18% and the inhibition at 25 µM stood at 43%.
Regarding `O=C(O)CI` [iodoacetate], in assay [1], the “inhibition of exogenous hydrogen peroxide-dependent reaction in polymorphonuclear neutrophils” value is recorded as “inhibited completely”. Further, in assay [2], the “inhibition of endogenous reactions in granular masses and polymorphonuclear neutrophils” value is given as “inhibited completely”.
`[Cu+2]` [cupric ion]: the “inhibition of exogenous hydrogen peroxide-dependent reaction in polymorphonuclear neutrophils” value in assay [1] (low concentrations) is given as “inhibited completely”. In addition, the “inhibition of endogenous reactions in granular masses and polymorphonuclear neutrophils” value in assay [2] (low concentrations) is recorded as “inhibited completely”.
Consider `[F-].[Na+]` [Sodium Flouride, sodium fluoride], for which the IC50 in assay [5] turned out to be 63 mM. For the same molecule, the “inhibition of myeloperoxidase activity” value in assay [6] was “inhibited”.
Turning to `CC=O` [Acetaldehyde, acetaldehyde], in assay [4] (setting [7]), the inhibition at 100 µM stood at 25% and the inhibition at 1000 µM is 60%. For the same molecule, in assay [4] (setting [10]), the inhibition at 100 µM is 10% and the inhibition at 1000 µM amounted to 30%.
As to nitric oxide [Nitrogen oxide], in assay [3], the “influence on cell function” value is recorded as “did not influence”. The influence on metabolism entry in assay [4] is “did not influence”.
Consider `[O]N=O` [Nitrogen dioxide, nitrogen dioxide], for which the “peripheral inflammatory cell function” value in assay [3] is given as “enhanced peripheral inflammatory cell function”. The “inhibition of aerobic metabolism” value in assay [4] is reported as “variable and, at times, doubtful inhibitions”.
As for `NO` [Hydroxylamine, hydroxylamine], in assay [1] (setting [11]), the “inhibition of hydrogen peroxide-dependent nitro-blue tetrazolium reducing enzyme activity” value was “inhibited markedly”. Moreover, in assay [2], the “inhibition of endogenous reactions in polymorphonuclear neutrophils and granular masses” value is listed as “not inhibited”. Also, the IC50 in assay [5] (supernatant extracts) turned out to be 0.33 mM. Also, the “inhibition of myeloperoxidase activity” value in assay [6] (Agner 1941, 1958) is “inhibited”.

B1: crystalline catalase (protein, UniProt P00432 2-527, looked up)
Catalase: ADNRDPASDQMKHWKEQRAAQKPDVLTTGGGNPVGDKLNSLTVGPRGPLLVQDVVFTDEMAHFDRERIPERVVHAKGAGAFGYFEVTHDITRYSKAKVFEHIGKRTPIAVRFSTVAGESGSADTVRDPRGFAVKFYTEDGNWDLVGNNTPIFFIRDALLFPSFIHSQKRNPQTHLKDPDMVWDFWSLRPESLHQVSFLFSDRGIPDGHRHMNGYGSHTFKLVNANGEAVYCKFHYKTDQGIKNLSVEDAARLAHEDPDYGLRDLFNAIATGNYPSWTLYIQVMTFSEAEIFPFNPFDLTKVWPHGDYPLIPVGKLVLNRNPVNYFAEVEQLAFDPSNMPPGIEPSPDKMLQGRLFAYPDTHRHRLGPNYLQIPVNCPYRARVANYQRDGPMCMMDNQGGAPNYYPNSFSAPEHQPSALEHRTHFSGDVQRFNSANDDNVTQVRTFYLKVLNEEQRKRLCENIAGHLKDAQLFIQKKAVKNFSDVHPEYGSRIQALLDKYNEEKPKNAVHTYVQHGSHLSAREKANL
For B1, the “inhibition of hydrogen peroxide-dependent nitro-blue tetrazolium reducing enzyme activity” value in assay [1] (setting [11]) is “inhibited markedly”. The “inhibition of endogenous reactions in polymorphonuclear neutrophils and granular masses” value in assay [2] was “not inhibited”. Besides, the “inhibition of myeloperoxidase activity” value is reported as approximately 50% in assay [5] (14 units of crystalline catalase added) and approximately 90% in assay [5] (41 units of crystalline catalase added).

The values are drawn from patent publication US6796312B2, “Process and apparatus for the removal of toxic components of tobacco smoke and the standardization of the health hazards related to those components” (priority 2001, dated 2004).
